Measurements reported in the NIST ThermoML archive (doi:10.1016/j.fluid.2011.11.023).
± gives the expanded uncertainty stated by the source.

Conditions: Crystal; visual observation

Nc1cccnc1 [β-aminopyridine]
Normal melting temperature: 64.50 ± 0.5 °C
